# Results published in US12268694B2, “Combination pharmaceutical agents as RSV inhibitors” (Enanta Pharmaceuticals, Inc., priority 2017, dated 2025).
# System: genotype A, "Long" strain RSV
# Assay: RSV-A assay: CPE protection in HEp-2 cells, ATPlite readout
# Assay type: cell-based, human respiratory syncytial virus
# Details: human respiratory syncytial virus, HEp-2, read-out: Human RSV-A (“Long” strain) EC50
# Description: HEp-2 cells, (originally derived from tumors grown in irradiated-cortisonised weanling rats that had been injected with epidermoid carcinoma tissue from a person's larynx, but later found to be indistinguishable from HeLa cells by PCR DNA analysis), were used for the culturing of genotype A, “Long” strain RSV. Flasks were inoculated with RSV and viral stocks were collected once cytopathic effect (CPE) was greater than 90%. Viral stocks in 25% sucrose media were snap frozen using liquid nitrogen to increase viral stability. Viral stock titers were quantified by tissue culture infectious dose 50% (TCID50) using 8,000 cells per well and 3-fold viral dilutions across a 96-well plate, cultured for 4 days. Viral stock titers were also quantified by a plaque forming unit assay, as described elsewhere.
# Following extensive parameter testing, the final assay is run as follows: HEp-2 cells are seeded into the inner 60 wells of a 96-well plate at 8,000 cells per well in a volume of 50 μL using Growth Media (DMEM without phenol red, 1% L-Glut, 1% Penn/Strep, 1% nonessential amino acids, 10% heat-inactivated FBS). 2-fold serial dilutions of control and test compounds are added to the wells in duplicate in a total volume of 25 μL. Viral stock is then added to the wells at a multiplicity of infection (MOI) of 0.1 in a volume of 25 μL, bringing the total volume of each well to 100 μL. The MOI is calculated using the PFU/mL, or TCID50 if unavailable. Each 96-well plate has a control column of 6 wells with cells and virus but no compound (negative control, max CPE), a column with cells but no compound or virus (positive control, minimum CPE), and a column with no cells or virus or compound (background plate/reagent control). The control wells with cells but no virus are given an additional 25 μL of growth media containing an equal quantity of sucrose as those wells receiving the viral stock in order to keep consistent in media and volume conditions. The outer wells of the plate are filled with 125 μL of moat media (DMEM, 1% Penn/Strep) to act as a thermal and evaporative moat around the test wells. Following a 5-day incubation period, the plates are read using ATPlite (50 μL added per well), which quantifies the amount of ATP (a measure of cell health) present in each well. Assay plates are read using the Envision luminometer. In parallel, cytotoxicity is examined on an additional 96-well plate treated in an identical manner, but substituting the 25 μL of viral stock for 25 μL of growth media. […] EC50 ranges are as follows: A <0.4 μM; B 0.4-0.8 μM; C >0.8 μM and CC50 ranges are as follows: A >50 μM; B 10-50 μM; C <10 μM.
row,Compound,EC50
1,CN1CCN(c2ncccc2-c2nnc(NC3N=C(c4ccccc4)c4ccccc4NC3=O)o2)CC1 (centres unmarked) [Example 237],> 0.8 µM
2,CN[C@H](c1ccccc1)c1nnc(NC2N=C(c3ccccc3)c3ccccc3NC2=O)o1 (some centres unmarked) [Example 238],> 0.8 µM
3,O=C1Nc2ccccc2C(c2ccccc2)=NC1Nc1nnc(-c2ccccc2OC2CCOCC2)o1 (centres unmarked) [Example 239],> 0.8 µM
4,O=C1Nc2ccccc2C(c2ccccc2)=NC1Nc1nnc(-c2ccccc2N2CCS(=O)(=O)CC2)o1 (centres unmarked) [Example 240],> 0.8 µM
5,O=C1Nc2ccccc2C(c2ccccc2)=NC1Nc1nnc(-c2cccnc2N2CCCCC2)o1 (centres unmarked) [Example 241],> 0.8 µM
6,C[C@@H]1CN(c2ccc(-c3nnc(N[C@H]4N=C(c5ccccc5)c5ccccc5NC4=O)o3)c(Cl)c2)C[C@H](C)O1 [Example 243],> 0.8 µM
7,O=C1Nc2ccccc2C(c2ccccc2)=N[C@@H]1Nc1nnc(-c2ccc(N3C4CCC3COC4)cc2Cl)o1 [Example 244],> 0.8 µM
8,O=C1Nc2ccccc2C(c2ccccc2)=NC1Nc1nnc(-c2cccnc2N2CCCC(F)(F)C2)o1 (centres unmarked) [Example 246],> 0.8 µM
9,CO[C@H]1CCN(c2ncccc2-c2nnc(NC3N=C(c4ccccc4)c4ccccc4NC3=O)o2)C1 (some centres unmarked) [Example 247],> 0.8 µM
10,O=C1Nc2ccccc2C(c2ccccc2)=NC1Nc1nnc(-c2cccnc2N2C[C@@H]3C[C@H]2CO3)o1 (some centres unmarked) [Example 248],> 0.8 µM
11,COC1CCN(c2ncccc2-c2nnc(NC3N=C(c4ccccc4)c4ccccc4NC3=O)o2)CC1 (centres unmarked) [Example 254],> 0.8 µM
12,O=C1Nc2ccccc2C(c2ccccc2)=NC1Nc1nnc(-c2cccnc2N2CCC(O)CC2)o1 (centres unmarked) [Example 255],> 0.8 µM
13,O=C1Nc2ccccc2C(c2ccccc2)=NC1Nc1nnc(-c2cccnc2N2CCC(F)CC2)o1 (centres unmarked) [Example 256],> 0.8 µM
14,COC1CN(c2ncccc2-c2nnc(NC3N=C(c4ccccc4)c4ccccc4NC3=O)o2)C1 (centres unmarked) [Example 258],> 0.8 µM
15,O=C1Nc2ccccc2C(c2ccccc2)=NC1Nc1nnc(-c2cccnc2N2CC(F)(F)C2)o1 (centres unmarked) [Example 259],> 0.8 µM
16,N#CC1CCN(c2ncccc2-c2nnc(NC3N=C(c4ccccc4)c4ccccc4NC3=O)o2)CC1 (centres unmarked) [Example 260],> 0.8 µM
17,C[C@H]1COCCN1c1ncccc1-c1nnc(NC2N=C(c3ccccc3)c3ccccc3NC2=O)o1 (some centres unmarked) [Example 261],> 0.8 µM
18,C[C@@H]1CN(c2ncccc2-c2nnc(NC3N=C(c4ccccc4)c4ccccc4NC3=O)o2)CCO1 (some centres unmarked) [Example 262],> 0.8 µM
19,O=C1Nc2ccccc2C(c2ccccc2)=NC1Nc1nnc(-c2cccnc2N2C[C@H]3C[C@@H]2CO3)o1 (some centres unmarked) [Example 264],> 0.8 µM
20,O=C1Nc2ccccc2C(c2ccccc2)=NC1Nc1nnc(-c2cccnc2N2C3CCC2COC3)o1 (centres unmarked) [Example 265],> 0.8 µM

row,Compound,EC50
1,O=C1Nc2ccccc2C(c2ccccc2)=NC1Nc1nnc(-c2cccnc2N2CC3CCC(C2)O3)o1 (centres unmarked) [Example 266],0.4 to 0.8 µM
2,O=C1Nc2ccccc2C(c2ccccc2)=NC1Nc1nnc(-c2cccnc2N2C[C@H]3COC[C@H]3C2)o1 (some centres unmarked) [Example 267],> 0.8 µM
3,O=C1Nc2ccccc2C(c2ccccc2)=NC1Nc1nnc(-c2cccnc2N2CCn3ncnc3C2)o1 (centres unmarked) [Example 270],> 0.8 µM
4,COC1CN(c2cc(C(F)(F)F)cnc2-c2nnc(N[C@H]3N=C(c4ccccc4)c4ccccc4NC3=O)o2)C1 [Example 271],> 0.8 µM
5,O=C1Nc2ccccc2C(c2ccccc2)=NC1Nc1nnc(-c2ccc(-n3cncn3)cc2)o1 (centres unmarked) [Example 273],0.4 to 0.8 µM
6,N#CC1CN(c2ncccc2-c2nnc(NC3N=C(c4ccccc4)c4ccccc4NC3=O)o2)C1 (centres unmarked) [Example 274],> 0.8 µM
7,O=C1Nc2ccccc2C(c2ccccc2)=N[C@@H]1Nc1nnc(-c2ccc(C(F)(F)F)nc2N2C3CCC2COC3)o1 [Example 275],> 0.8 µM
8,Cc1ccc(-c2nnc(N[C@H]3N=C(c4ccccc4)c4ccccc4NC3=O)o2)c(N2CC3CCC(C2)O3)n1 [Example 279],< 0.4 µM
9,Cc1ccc(-c2nnc(N[C@H]3N=C(c4ccccc4)c4ccccc4NC3=O)o2)c(N2C3CCC2COC3)n1 [Example 280],< 0.4 µM
10,N#Cc1ccc(-c2nnc(N[C@H]3N=C(c4ccccc4)c4ccccc4NC3=O)o2)c(N2CC3CCC(C2)O3)c1 [Example 281],< 0.4 µM
11,O=C1Nc2ccccc2C(c2ccccc2)=N[C@@H]1Nc1nnc(-c2ncc(C(F)(F)F)cc2-c2ccncc2)o1 [Example 282],> 0.8 µM
12,O=C1Nc2ccccc2C(c2ccccc2)=NC1Nc1nnc(-c2ccccc2-n2cccn2)o1 (centres unmarked) [Example 283],> 0.8 µM
13,C[C@@H]1CN(c2cc(F)ccc2-c2nnc(N[C@H]3N=C(c4ccccc4)c4ccccc4NC3=O)o2)C[C@H](C)O1 [Example 284],> 0.8 µM
14,C[C@@H]1COCCN1c1cc(C#N)ccc1-c1nnc(N[C@H]2N=C(c3ccccc3)c3ccccc3NC2=O)o1 [Example 285],< 0.4 µM
15,Cc1ccc(-c2nnc(N[C@H]3N=C(c4ccccc4)c4ccccc4NC3=O)o2)c(N2CCOC[C@H]2C)n1 [Example 286],< 0.4 µM
16,O=C1Nc2ccccc2C(c2ccccc2)=N[C@@H]1Nc1nnc(-c2ccc(F)cc2N2CC3CCC(C2)O3)o1 [Example 288],0.4 to 0.8 µM
17,N#Cc1ccc(-c2nnc(N[C@H]3N=C(c4ccccc4)c4ccccc4NC3=O)o2)c(N2C3CCC2COC3)c1 [Example 289],< 0.4 µM
18,O=C1Nc2ccccc2C(c2ccccc2)=N[C@@H]1Nc1nnc(-c2cnc(C(F)(F)F)nc2N2CC3CCC(C2)O3)o1 [Example 290],> 0.8 µM
19,N#Cc1c[nH]c2cc(-c3nnc(N[C@H]4N=C(c5ccccc5)c5ccccc5NC4=O)o3)ccc12 [Example 291],> 0.8 µM
20,O=C1Nc2ccccc2C(c2ccccc2)=N[C@@H]1Nc1nnc(-c2nnsc2N2CCOCC2)o1 [Example 292],< 0.4 µM

row,Compound,EC50
1,O=C1Nc2ccccc2C(c2ccccc2)=N[C@@H]1Nc1nnc(-c2ncc(C(F)(F)F)cc2C2CC2)o1 [Example 293],> 0.8 µM
2,C[C@@H]1COCCN1c1cc(C(F)(F)F)cnc1-c1nnc(N[C@H]2N=C(c3ccccc3)c3ccccc3NC2=O)o1 [Example 294],< 0.4 µM
3,COc1ccc(-c2nnc(N[C@H]3N=C(c4ccccc4)c4ccccc4NC3=O)o2)c(N2CCOCC2)n1 [Example 295],< 0.4 µM
4,CN1CCN(c2cc(C(F)(F)F)cnc2-c2nnc(N[C@H]3N=C(c4ccccc4)c4ccccc4NC3=O)o2)CC1=O [Example 296],> 0.8 µM
5,CC(C)(O)CNc1cc(C(F)(F)F)cnc1-c1nnc(N[C@H]2N=C(c3ccccc3)c3ccccc3NC2=O)o1 [Example 297],< 0.4 µM
6,COCCn1c(-c2nnc(N[C@H]3N=C(c4ccccc4)c4ccccc4NC3=O)o2)nc2ccccc21 [Example 298],> 0.8 µM
7,O=C1Nc2ccccc2C(c2ccccc2)=N[C@@H]1Nc1nnc(-c2ncc(F)cc2N2CC3CCC(C2)O3)o1 [Example 299],< 0.4 µM
8,C[C@@H]1COCCN1c1cc(C#N)cnc1-c1nnc(N[C@H]2N=C(c3ccccc3)c3ccccc3NC2=O)o1 [Example 301],< 0.4 µM
9,CN(C)c1cc(C(F)(F)F)cnc1-c1nnc(N[C@H]2N=C(c3ccccc3)c3ccccc3NC2=O)o1 [Example 302],> 0.8 µM
10,COCCNc1cc(C(F)(F)F)cnc1-c1nnc(N[C@H]2N=C(c3ccccc3)c3ccccc3NC2=O)o1 [Example 305],< 0.4 µM
11,COCCn1ccnc1-c1nnc(N[C@H]2N=C(c3ccccc3)c3ccccc3NC2=O)o1 [Example 306],> 0.8 µM
12,CNc1cc(C(F)(F)F)cnc1-c1nnc(N[C@H]2N=C(c3ccccc3)c3ccccc3NC2=O)o1 [Example 307],> 0.8 µM
13,CN(CC(C)(C)O)c1cc(C(F)(F)F)cnc1-c1nnc(N[C@H]2N=C(c3ccccc3)c3ccccc3NC2=O)o1 [Example 308],> 0.8 µM
14,N#Cc1ccc(-c2nnc(N[C@H]3N=C(c4ccccc4)c4ccccc4NC3=O)o2)c(-c2ccsc2)c1 [Example 309],> 0.8 µM
15,COCCn1nccc1-c1nnc(N[C@H]2N=C(c3ccccc3)c3ccccc3NC2=O)o1 [Example 310],> 0.8 µM
16,C#Cc1cnc(-c2nnc(N[C@H]3N=C(c4ccccc4)c4ccccc4NC3=O)o2)c(N2CCOCC2)c1 [Example 311],< 0.4 µM
17,O=C1Nc2ccccc2C(c2ccccc2)=N[C@@H]1Nc1nnc(-c2ncc(C3=CCCCC3)cc2N2CCOCC2)o1 [Example 312],0.4 to 0.8 µM
18,O=C1Nc2ccccc2C(c2ccccc2)=N[C@@H]1Nc1nnc(-c2ncc(C3CCCCC3)cc2N2CCOCC2)o1 [Example 313],< 0.4 µM
19,O=C1Nc2ccccc2C(c2ccccc2)=N[C@@H]1Nc1nnc(-c2ncc(N3CCCC3)cc2N2CCOCC2)o1 [Example 314],< 0.4 µM
